According to patent US20240351986A1, “UREA COMPOUND CONTAINING 2-HETEROAROMATIC RING SUBSTITUTION, PREPARATION METHOD THEREFOR AND USE THEREOF” (SHANGHAI INSTITUTE OF MATERIA MEDICA, CHINESE ACADEMY OF …, priority 2021, published 2024):
Like-named read-outs stand apart in the source and are kept apart here.

Tests used:
CDK6/cyclin D1 = CDK6/cyclin D1 (Homo sapiens, UniProt Q00534); experiment: CDK6 enzyme activity inhibition; format: biochemical; conditions: for inhibition at 0.01 µM: compound 10 nM, read-out: CDK6/Cyc D1 inhibition rate % 10 nM; for inhibition at 0.1 µM: compound 100 nM, read-out: CDK6/Cyc D1 inhibition rate % 100 nM
Method: (§1) CDK1,4,6,7 enzyme (CDK1/cyclin B, CDK4/cyclin D1, CDK6/cyclin D1, CDK7/cyclin H) activity was measured using a 5 μL enzyme system (50 mM HEPES, 10 mM MgCl2, 1 mM EGTA, 2 mM DTT and 0.0100 Tween 20, appropriate enzyme) either. A mixture of 2.5 μL of compound, 2.5 µL of substrate and ATP (final concentration of substrate 50 nM, final concentration of ATP 200 μM) was incubated at room temperature in the dark for 60 minutes. Then 5 μL EDTA stop solution diluted in 1× detection buffer (final concentration 6 mM) was added to each well, then an antibody diluted in 1× detection buffer (final concentration 2 nM) was added to incubate for 1 hour at room temperature in the dark, and then the corresponding enzyme activity inhibition rate or IC50 was calculated after measurement.

CDK1/cyclin B = CDK1/cyclin B (Homo sapiens, UniProt P06493); experiment: CDK1 enzyme activity inhibition; format: biochemical; conditions: for inhibition at 0.01 µM: compound 10 nM, read-out: CDK1/Cyc B inhibition rate % 10 nM; for inhibition at 0.1 µM: compound 100 nM, read-out: CDK1/Cyc B inhibition rate % 100 nM
Method: as §1

CDK4/cyclin D1 = CDK4/cyclin D1 (Homo sapiens, UniProt P11802); experiment: CDK4 enzyme activity inhibition; format: biochemical; conditions: for inhibition at 0.01 µM: compound 10 nM, read-out: CDK4/Cyc D1 inhibition rate % 10 nM; for inhibition at 0.1 µM: compound 100 nM, read-out: CDK4/Cyc D1 inhibition rate % 100 nM
Method: as §1

[1] = biological target: T1, Recombinant human CDK9/cyclin T1 (Homo sapiens, UniProt P50750); experiment: CDK9 enzyme inhibitory activity (ADP-Glo kinase assay); format: biochemical; conditions: for inhibition at 0.01 µM / inhibition at 0.1 µM: CDK9 enzyme activity, average of two independent repeats; for inhibition at 0.01 µM: compound 10 nM, read-out: Inhibition rate at different concentrations (%) 10 nM; for inhibition at 0.1 µM: compound 100 nM, read-out: Inhibition rate at different concentrations (%) 100 nM; for IC50: Table 2, read-out: CDK9/CycT1 IC50
T1 construct: purchased Carna bioscience 04-110

CDK7/cyclin H = CDK7/cyclin H (Homo sapiens, UniProt P50613); experiment: CDK7 enzyme activity inhibition; format: biochemical; conditions: for inhibition at 0.01 µM: compound 10 nM, read-out: CDK7/Cyc H inhibition rate % 10 nM; for inhibition at 0.1 µM: compound 100 nM, read-out: CDK7/Cyc H inhibition rate % 100 nM
Method: as §1

[2] = PK parameters in mice after iv and po administration (LC-MS/MS of plasma); format: in vivo; conditions: for AUC(0-t) / half-life / AUC(0-inf) / MRT inf / Cmax / Tmax: mouse, plasma; for AUC(0-inf): read-out: AUCINF_obs; for MRT inf: read-out: MRTINF_obs; for F: oral bioavailability
Method: The relevant pharmacokinetic parameters were calculated to examine the oral bioavailability and pharmacokinetic properties of the compound in mice.

[3] = Identification of metabolites in mouse plasma; format: in vivo
Mcl-1 = experiment: Western Blot, CDK9 signaling pathway in WSU-DLCL2 cells: Mcl-1 expression; format: cell-based; conditions: 24 hours
Method: (§2) Western Blot was used to detect the effect of compounds on the activation of CDK9 signaling pathway in WSU-DLCL2 cells.
(§3) Experimental method: An appropriate amount of WSU-DLCL2 cells were seeded in a 6-well plate. After 24 hours of exposure to the test compound, the cells were collected by centrifugation. A corresponding amount of 1× loading buffer (50 mM Tris-HCl (pH6.8), 2% SDS, 0.1% bromophenol blue, 10% glycerol) was added, the sample was boiled at 100° C. after lysis. The same volume of sample was taken. After SDS-PAGE electrophoresis, the protein on the gel was transferred to a nitrocellulose membrane. The corresponding band was cut according to the size of the protein and blocked TBST containing 5% skimmed milk powder (20 mM Tris-HCl, 150 mM NaCl, 0.1% Tween20, adjust pH to 7.4) for 1 hour, and primary antibody was incubated overnight at 4° C. TBST was used to elute excess primary antibody for 10 minutes each time for three times, the secondary antibody was incubated at room temperature for 1 hour, and then TBST was used to elute excess secondary antibody for 10 minutes each time for three times. Finally, the strips were colored and photographed using a Bio-Rad colorimeter.

[4] = test system: phosphorylation of Pol II S2 position; experiment: Western Blot, CDK9 signaling pathway in WSU-DLCL2 cells: Pol II S2 phosphorylation; format: cell-based; conditions: 24 hours
Method: as §2, §3

WSU-DLCL2 cells = experiment: Tumor cell proliferation inhibition in vitro (CCK-8); format: cell-based; conditions: Homo sapiens, WSUDLCL2, 72 hours
Method: Experimental method: WSU-DLCL2 cells in good condition were seeded in a 96-well plate at 20,000/well. The test compound was gradient diluted with PBS and then added to the wells. After incubating with the cells for 72 hours, 10 μl of CCK-8 reagent was added to each well. After further incubation, the absorbance was measured at 460 nm and the 4-parameter curve fitting of Softmax Pro software was used to calculate the proliferation inhibition IC50 of the test compound.

Will2 = experiment: Tumor cell proliferation inhibition in vitro; format: cell-based
Pfeiffer = experiment: Tumor cell proliferation inhibition in vitro; format: cell-based; conditions: for IC50: Homo sapiens, Pfeiffer, proliferation
U2932 = experiment: Tumor cell proliferation inhibition in vitro; format: cell-based; conditions: Homo sapiens
422 = experiment: Tumor cell proliferation inhibition in vitro; format: cell-based; conditions: for IC50: proliferation
[5] = original form and metabolites of compound 47 in mouse plasma, iv

Chain of CDK4/cyclin D1 (P11802 whole entry, species assumed): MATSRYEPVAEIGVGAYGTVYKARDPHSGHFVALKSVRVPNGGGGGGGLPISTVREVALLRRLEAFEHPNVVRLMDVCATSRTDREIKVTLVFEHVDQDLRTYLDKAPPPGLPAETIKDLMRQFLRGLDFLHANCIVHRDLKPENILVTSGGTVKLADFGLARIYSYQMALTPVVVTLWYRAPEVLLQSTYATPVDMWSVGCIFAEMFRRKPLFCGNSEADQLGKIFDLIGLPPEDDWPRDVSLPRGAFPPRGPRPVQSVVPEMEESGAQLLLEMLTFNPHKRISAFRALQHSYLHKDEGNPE
Chain of CDK4/cyclin D1 (P24385 whole entry partner, species assumed): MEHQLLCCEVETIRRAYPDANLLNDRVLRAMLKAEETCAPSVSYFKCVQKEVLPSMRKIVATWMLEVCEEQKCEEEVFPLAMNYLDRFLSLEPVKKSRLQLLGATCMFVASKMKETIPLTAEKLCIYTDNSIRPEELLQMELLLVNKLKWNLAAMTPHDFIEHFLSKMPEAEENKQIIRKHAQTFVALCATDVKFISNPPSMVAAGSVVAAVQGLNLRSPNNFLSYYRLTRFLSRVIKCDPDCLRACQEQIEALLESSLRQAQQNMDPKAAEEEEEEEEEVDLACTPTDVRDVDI
Chain of CDK6/cyclin D1 (Q00534 whole entry, species assumed): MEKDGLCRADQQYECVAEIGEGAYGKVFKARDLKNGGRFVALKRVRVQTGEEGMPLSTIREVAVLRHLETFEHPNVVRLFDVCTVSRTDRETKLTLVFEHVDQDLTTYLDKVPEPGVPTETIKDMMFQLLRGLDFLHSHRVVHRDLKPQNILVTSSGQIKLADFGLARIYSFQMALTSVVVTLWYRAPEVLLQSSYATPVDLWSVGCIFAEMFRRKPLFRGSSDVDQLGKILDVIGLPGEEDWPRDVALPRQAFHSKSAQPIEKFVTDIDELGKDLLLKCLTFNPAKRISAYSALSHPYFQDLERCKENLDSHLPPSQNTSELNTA
Chain of CDK6/cyclin D1 (P24385 whole entry partner, species assumed): as the sequence (P24385 whole entry partner, species assumed) above
T1 sequence (P50750 whole entry): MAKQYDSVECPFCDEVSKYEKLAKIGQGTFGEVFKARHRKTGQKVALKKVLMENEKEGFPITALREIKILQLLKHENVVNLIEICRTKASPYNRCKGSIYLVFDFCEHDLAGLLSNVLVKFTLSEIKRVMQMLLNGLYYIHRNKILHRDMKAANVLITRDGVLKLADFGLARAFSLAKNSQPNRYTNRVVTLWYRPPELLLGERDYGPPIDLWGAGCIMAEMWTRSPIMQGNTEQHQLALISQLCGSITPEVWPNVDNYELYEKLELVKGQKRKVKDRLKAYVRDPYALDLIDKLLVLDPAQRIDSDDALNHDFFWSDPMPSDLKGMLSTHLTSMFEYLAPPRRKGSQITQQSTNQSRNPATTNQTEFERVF
T1 sequence (O60563 whole entry partner): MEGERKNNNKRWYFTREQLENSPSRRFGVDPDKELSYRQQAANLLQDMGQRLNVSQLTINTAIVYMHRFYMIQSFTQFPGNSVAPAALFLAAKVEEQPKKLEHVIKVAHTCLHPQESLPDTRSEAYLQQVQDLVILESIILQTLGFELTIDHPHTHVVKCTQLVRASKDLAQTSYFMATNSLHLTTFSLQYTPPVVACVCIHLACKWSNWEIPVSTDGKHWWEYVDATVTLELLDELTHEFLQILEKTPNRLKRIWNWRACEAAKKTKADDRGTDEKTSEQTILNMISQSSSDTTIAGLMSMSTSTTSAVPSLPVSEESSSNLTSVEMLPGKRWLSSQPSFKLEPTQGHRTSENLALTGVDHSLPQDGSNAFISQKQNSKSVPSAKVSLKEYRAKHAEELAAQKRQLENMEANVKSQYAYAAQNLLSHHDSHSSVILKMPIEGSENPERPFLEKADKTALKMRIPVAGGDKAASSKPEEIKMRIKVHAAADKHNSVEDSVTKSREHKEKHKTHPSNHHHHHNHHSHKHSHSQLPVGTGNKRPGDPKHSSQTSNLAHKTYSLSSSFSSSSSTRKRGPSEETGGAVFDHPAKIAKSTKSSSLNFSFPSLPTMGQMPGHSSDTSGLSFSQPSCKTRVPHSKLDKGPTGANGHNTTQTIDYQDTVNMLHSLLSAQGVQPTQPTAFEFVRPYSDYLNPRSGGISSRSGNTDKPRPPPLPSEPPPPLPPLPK
Chain of CDK1/cyclin B (P06493 whole entry, species assumed): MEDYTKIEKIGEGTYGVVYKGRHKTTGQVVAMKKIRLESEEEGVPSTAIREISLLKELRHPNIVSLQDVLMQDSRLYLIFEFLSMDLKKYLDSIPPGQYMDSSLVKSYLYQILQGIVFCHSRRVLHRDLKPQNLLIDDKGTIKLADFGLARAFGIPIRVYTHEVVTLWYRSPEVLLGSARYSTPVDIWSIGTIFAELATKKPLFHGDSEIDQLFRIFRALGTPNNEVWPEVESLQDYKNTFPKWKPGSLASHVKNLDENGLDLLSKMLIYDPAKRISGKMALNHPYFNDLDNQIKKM
Chain of CDK1/cyclin B (P14635 whole entry partner, species assumed): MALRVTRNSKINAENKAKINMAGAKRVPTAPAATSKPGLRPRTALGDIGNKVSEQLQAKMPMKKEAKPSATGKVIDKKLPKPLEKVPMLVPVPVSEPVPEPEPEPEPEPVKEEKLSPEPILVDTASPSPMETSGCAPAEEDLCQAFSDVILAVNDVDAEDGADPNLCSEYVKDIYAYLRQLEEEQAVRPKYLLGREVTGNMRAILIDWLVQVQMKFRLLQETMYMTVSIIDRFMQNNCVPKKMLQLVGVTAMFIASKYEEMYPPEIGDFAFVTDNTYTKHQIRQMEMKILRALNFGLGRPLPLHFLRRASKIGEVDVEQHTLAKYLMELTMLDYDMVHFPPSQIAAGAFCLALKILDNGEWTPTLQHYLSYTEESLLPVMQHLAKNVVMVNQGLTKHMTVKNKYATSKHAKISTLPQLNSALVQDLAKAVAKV
Chain of CDK7/cyclin H (P50613 whole entry, species assumed): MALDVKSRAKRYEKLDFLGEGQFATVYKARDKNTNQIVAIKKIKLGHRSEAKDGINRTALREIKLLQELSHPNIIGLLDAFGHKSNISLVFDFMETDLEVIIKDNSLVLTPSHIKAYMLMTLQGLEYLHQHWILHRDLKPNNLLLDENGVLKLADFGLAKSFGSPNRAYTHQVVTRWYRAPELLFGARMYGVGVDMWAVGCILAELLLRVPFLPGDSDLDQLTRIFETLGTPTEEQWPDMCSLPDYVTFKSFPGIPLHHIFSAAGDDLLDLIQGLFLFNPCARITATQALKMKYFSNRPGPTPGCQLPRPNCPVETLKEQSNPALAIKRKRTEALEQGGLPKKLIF
Chain of CDK7/cyclin H (P51946 whole entry partner, species assumed): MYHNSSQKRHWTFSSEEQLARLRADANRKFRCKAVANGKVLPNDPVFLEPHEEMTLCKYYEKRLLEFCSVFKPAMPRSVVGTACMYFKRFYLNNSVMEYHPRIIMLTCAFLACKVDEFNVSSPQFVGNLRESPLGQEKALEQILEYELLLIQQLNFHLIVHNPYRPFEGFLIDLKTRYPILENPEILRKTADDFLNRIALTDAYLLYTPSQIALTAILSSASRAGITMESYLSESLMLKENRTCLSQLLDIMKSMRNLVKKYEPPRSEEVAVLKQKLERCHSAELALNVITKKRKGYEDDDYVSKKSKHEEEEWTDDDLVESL

| inhibition at 0.01 µM (CDK6/cyclin D1) | inhibition at 0.1 µM (CDK6/cyclin D1) | inhibition at 0.01 µM (CDK1/cyclin B) | inhibition at 0.1 µM (CDK1/cyclin B) | inhibition at 0.01 µM (CDK4/cyclin D1) | inhibition at 0.1 µM (CDK4/cyclin D1) | inhibition at 0.01 µM [1] | inhibition at 0.1 µM [1] | IC50 [1] | inhibition at 0.01 µM (CDK7/cyclin H) | inhibition at 0.1 µM (CDK7/cyclin H) | CL_obs ([2]; i.v.) | Vss_obs ([2]; i.v.) | AUC(0-t) ([2]; iv, 3 mg/kg) | half-life ([2]; iv, 3 mg/kg) | AUC(0-inf) ([2]; iv, 3 mg/kg, i.v.) | MRT inf ([2]; iv, 3 mg/kg, i.v.) | AUC(0-t) ([2]; po) | Cmax ([2]; po) | Tmax ([2]; po) | Compound | also measured |
| --- | --- | --- | --- | --- | --- | --- | --- | --- | --- | --- | --- | --- | --- | --- | --- | --- | --- | --- | --- | --- | --- |
| 4% | 19.1% | 4.7% | 47.4% | 9.5% | 18% | 68% | 85% | 5.3 nM | -4% | 44% |  |  |  |  |  |  |  |  |  | CC(=O)N[C@H]1CC[C@@H](NC(=O)Nc2cc(-c3cnn4c3CC(C)(C)C4)c(Cl)cn2)CC1 [Example 67, N-((1s,4s)-4-(3-(5-chloro-4-(5,5-dimethyl-5,6-dihydro-4H-pyrrolo[1,2-b]pyrazol-3-yl)pyridin-2-yl)ureido)cyclohexyl)acetamide] |  |
| 9.9% | 18.9% | -1.9% | -1.4% | 7.2% | 25.1% | 50.2% | 96.7% | 6.2 nM | -24.5% | -2.6% |  |  |  |  |  |  |  |  |  | COCCN[C@H]1CC[C@H](NC(=O)Nc2cc(-c3ccc(F)cc3OC)ccn2)CC1 [Example 3, 1-(4-(4-fluoro-2-methoxyphenyl)pyridin-2-yl)-3-((1r,4r)-4-((2-methoxyethyl)amino)cyclohexyl) urea] |  |
| 2.6% | 13.8% | 1.3% | 7.8% | -7% | 1.8% | 57% | 88% | 5.7 nM | -6.6% | -3.8% |  |  |  |  |  |  |  |  |  | COc1cc(F)ccc1-c1ccnc(NC(=O)N[C@H]2CC[C@H](N)CC2)c1 [Example 2, 1-((1r,4r)-4-aminocyclohexyl)-3-(4-(4-fluoro-2-methoxyphenyl)pyridin-2-yl)urea] |  |
| 6.2% | 21.6% | -5.1% | 11.6% | 11.1% | 20.9% | 55% | 94% | 12 nM | 24% | 59% | 68.6 mL/min/kg | 3.469 L/kg | 728 ng·h/mL | 2.09 h | 729 ng·h/mL | 0.84 h | 601 ng·h/mL | 382 ng/mL | 1 h | COCCN[C@H]1CC[C@H](NC(=O)Nc2cc(-c3cnn4c3CC(C)(C)C4)c(Cl)cn2)CC1 [Example 46, 1-(5-chloro-4-(5,5-dimethyl-5,6-dihydro-4H-pyrrolo[1,2-b]pyrazol-3-yl)pyridin-2-yl)-3-((1r,4r)-4-((2-methoxy)amino)cyclohexyl)urea] | plasma clearance rates compared with AZD4573 [2]: lower; half-life ([2]; po, 10 mg/kg): 2.38 h; AUC(0-inf) ([2]; po): 602 ng·h/mL; MRT inf ([2]; po): 1.7 h; F [2]: 24.8% |
|  |  |  |  |  |  |  |  |  |  |  |  |  |  |  |  |  |  |  |  | CC(=O)N[C@H]1CC[C@H](NC(=O)Nc2cc(-c3cnn4c3CC(C)(C)C4)c(Cl)cn2)CC1 [Example M0] | Area (254 nm), value in parentheses, iv [3, 5]: (532); MS Area iv [3, 5]: 62967; MS Area po ([3]; original form and metabolites of compound 47 in mouse plasma, po): 811 |
| 4.6% | 26.7% | 5% | 33.4% | 13.6% | 41.1% | 71% | 84% | 5.1 nM | 15% | 50% | 102 mL/min/kg | 14.318 L/kg | 480 ng·h/mL | 3.84 h | 491 ng·h/mL | 2.34 h | 98.8 ng·h/mL | 58.2 ng/mL | 0.5 h | CC(=O)N[C@H]1CC[C@H](NC(=O)Nc2cc(-c3cnn4c3CC(C)(C)C4)c(Cl)cn2)CC1 [Example 47, N-((1r,4r)-4-(3-(5-chloro-4-(5,5-dimethyl-5,6-dihydro-4H-pyrrolo[1,2-b]pyrazol-3-yl)pyridin-2-yl)ureido)cyclohexyl)acetamide] | plasma stability compared with positive compound AZD4573 ([3]; mouse plasma, from metabolite identification): higher plasma stability; Mcl-1 expression (Mcl-1; 50 nM): significant decrease; Mcl-1 expression (Mcl-1; 100 nM): almost completely blocked; phosphorylation of Pol II S2 position ([4]; 50 nM, vs control group): significantly down-regulated; phosphorylation of Pol II S2 position ([4]; 100 nM): basically completely inhibited; IC50 (WSU-DLCL2 cells): < 4.5 nM; IC50 (Will2): 2.16 nM; IC50 (Pfeiffer): 0.052 nM; growth inhibition potency relative to positive control compound AZD4573 (Pfeiffer; Pfeiffer cells, IC50 ratio): 46.67 times; plasma clearance rates compared with AZD4573 [2]: lower; half-life ([2]; po, 10 mg/kg): 1.5 h; AUC(0-inf) ([2]; po): 100 ng·h/mL; MRT inf ([2]; po): 1.57 h; F [2]: 6.18%; IC50 (U2932): 0.932 nM; growth inhibition potency relative to positive control compound AZD4573 (422; 422 cells, IC50 ratio): 20.33 times; IC50 422: 0.089 nM |
|  |  |  |  |  |  | 48.5% | 97.3% |  |  |  |  |  |  |  |  |  |  |  |  | COc1cc(F)ccc1-c1ccnc(NC(=O)NC2CCC(NC(=O)OC(C)(C)C)CC2)c1 (centres unmarked) [Example 1, tert-butyl((1r,4r)-4-(3-(4-(4-fluoro-2-methoxyphenyl)pyridin-2-yl)ureido)cyclohexyl) carbamate] |  |
|  |  |  |  |  |  | 40.2% | 68.3% |  |  |  |  |  |  |  |  |  |  |  |  | CC(=O)NC1CCC(NC(=O)Nc2cc(-c3cnn4c3CN(C)CC4)c(Cl)cn2)CC1 (centres unmarked) [Example 83, N-((1r,4r)-4-(3-(5-chloro-4-(5-methyl-4,5,6,7-tetrahydropyrazolo[1,5-a]pyrazin-3-yl)pyridin-2-yl)ureido)cyclohexyl)acetamide] |  |
|  |  |  |  |  |  |  |  |  |  |  | 119 mL/min/kg | 0.82 L/kg | 416 ng·h/mL | 0.11 h | 419 ng·h/mL | 0.11 h | 73.2 ng·h/mL | 219 ng/mL | 0.25 h | CC(=O)N[C@@H]1CCC[C@H](C(=O)Nc2cc(-c3cnn4c3CC(C)(C)C4)c(Cl)cn2)C1 [AZD4573, reference compound] | IC50 (WSU-DLCL2 cells): < 3 nM; IC50 (Will2): 5.75 nM; IC50 (Pfeiffer): 2.43 nM; half-life ([2]; po, 10 mg/kg): 0.27 h; AUC(0-inf) ([2]; po): 73.6 ng·h/mL; MRT inf ([2]; po): 0.42 h; F [2]: 5.28%; IC50 (U2932): 2.32 nM; IC50 422: 1.81 nM |
|  |  |  |  |  |  | 28% | 55% |  |  |  |  |  |  |  |  |  |  |  |  | COc1cc(F)ccc1-c1cc(NC(=O)NC2CCC(NC(=O)OC(C)(C)C)CC2)ncn1 (centres unmarked) [Example 39, tert-butyl ((1r,4r)-4-(3-(6-(4-fluoro-2-methoxyphenyl)pyrimidin-4-yl)ureido)cyclohexyl)carbamate] |  |
